According to patent publication EP1243581A1, “Pyridinium compounds useful for the treatment of AGE-related diseases” (Torrent Pharmaceuticals Ltd, priority 2001, dated 2002):

Each compound was assayed against T1, AGE-BSA (Bos taurus, UniProt P02769) (assay: In-vitro screening for AGE-breaking activity (ELISA on 16 weeks AGE-BSA)). Conditions: Concentration 1 mM; 10µg/ml 16 weeks AGE-BSA, 37°C, 24 hours.
T1 construct: Bovine serum albumin (fraction V) (BSA); from tissue; host or cells: bovine serum (fraction V albumin)
T1 sequence (P02769 25-607): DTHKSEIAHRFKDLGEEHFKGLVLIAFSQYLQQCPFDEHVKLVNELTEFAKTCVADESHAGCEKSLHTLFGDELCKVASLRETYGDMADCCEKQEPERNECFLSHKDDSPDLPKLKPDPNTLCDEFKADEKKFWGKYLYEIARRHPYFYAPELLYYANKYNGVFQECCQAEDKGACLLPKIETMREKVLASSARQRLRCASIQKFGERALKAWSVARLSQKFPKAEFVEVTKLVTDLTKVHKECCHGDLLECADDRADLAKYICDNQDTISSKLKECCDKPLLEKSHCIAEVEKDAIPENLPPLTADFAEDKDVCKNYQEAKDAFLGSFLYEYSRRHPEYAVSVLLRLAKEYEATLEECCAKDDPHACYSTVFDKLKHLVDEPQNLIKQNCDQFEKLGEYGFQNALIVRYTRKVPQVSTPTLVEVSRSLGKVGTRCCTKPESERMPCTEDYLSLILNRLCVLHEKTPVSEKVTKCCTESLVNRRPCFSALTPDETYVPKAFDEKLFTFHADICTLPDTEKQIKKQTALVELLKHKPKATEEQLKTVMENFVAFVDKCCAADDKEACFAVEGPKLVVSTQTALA
Type: biochemical, bovine
Protocol: • Materials: • Bovine serum albumin (fraction V) (BSA) • Glucose, analytical grade • Phosphate buffered saline (PBS) • Equipment: • Microplate ELISA Reader - Spectramax Plus (Molecular Devices, USA) • Microplate washer, (Bio -Tec Instruments, USA) • pH meter Methods of experiment: Elisa (Enzyme Linked Immunosorbent Assay) 160 mg/ml of protein, bovine serum albumin, BSA and 1.6M glucose sugar were dissolved in phosphate buffered saline, PBS. Sodium azide was added at 0.02% concentration as a preservative. The solution was filtered asceptically through a 0.22 µM filter and kept for aging at 37°C for 16 weeks. After 16 weeks the solution was dialyzed against PBS, aliquoted and stored at - 20°C.
To determine the AGE breaking activity, 10µg/ml of the 16 weeks AGE-BSA was incubated with different concentrations of the test compounds at 37°C for 24 hours and AGE breaking activity of the test compounds by ELISA was determined. […] Different concentrations of 16 weeks AGE-BSA were coated on a microtitre plate as standard. Each concentration is coated in triplicates. • 2. The test samples were coated on microtitre plate at a concentration of 5 ng. to 20 ng per well in triplicates. • 3. The plate was incubated at 37°C for one hour. • 4. After incubation the plate was washed with PBST (PBS with 0.05% Tween 20). • 5. Blocking with 5% skimmed milk in PBS at 37°C for one hour was done. • 6. The plate was washed with PBST. • 7. Primary antibody against AGE-BSA was added and the plate is incubated at 37°C for one hour. • 8. The plate was washed with PBST • 9. Secondary antibody anti rabbit HRPO (Horse-Radish Per Oxidase) conjugate was added and the plate is incubated at 37°C for one hour. • 10. The plate was washed with PBST. • 11. Colour development with OPD (orthophenylenediamine dihydrochloride) and hydrogen peroxide was done. • 12. OD (optical density) at (450nm reading - 620nm reading) was measured after incubation at 37°C for 15 minutes with Microplate ELISA Reader.
The breaker activity of the compounds were determined by the following formula: % Breaker activity =(OD450-620 Control - OD450-620 Test)/(OD450-620 Control)x 100 [formula]

Row | Structure (SMILES) | % breakage of AGE-BSA crosslinks at 1000 µM [%]
1 | Cc1ccc(C(=O)NNS(C)(=O)=O)c[n+]1CC(=O)c1cccs1 [Compound 39, 1-(2-thien-2'-yl-2-oxoethyl)-3-(methanesulfonyl hydrazinocarbonyl) -6-methyl pyridinium bromide] | 77.7
2 | NC(=O)c1cc(C(=O)NNC(=O)c2ccc[n+](CC(=O)c3cccs3)c2)c[n+](CC(=O)c2cccs2)c1 [Compound 42, 1-[1-(2-thien-2'-yl-2-oxoethyl)-5-aminocarbonyl-3-carbonylpyridinium]-2-[1-(2-Thien-2'-yl-2-oxoethyl)-3-carbonylpyridinium] hydrazine dichloride] | 95.4

Same assay, conditions: Concentration 2.5 mM; 10µg/ml 16 weeks AGE-BSA, 37°C, 24 hours

Row | Structure (SMILES) | % breakage of AGE-BSA crosslinks at 2500 µM [%]
3 | Cc1ccc(C(=O)NNC(=O)c2ccc[n+](CC(=O)c3cccs3)c2)c[n+]1CC(=O)c1cccs1 [Compound 31, 1-[1-(2-thien-2'-yl-2-oxoethyl)-6-methyl-3-carbonylpyridinium]-2-[1-(2-Thien-2'-yl-2-oxoethyl)-3-carbonylpyridinium] hydrazine dichloride] | 85.7
4 | CS(=O)(=O)NNC(=O)c1cc(Br)c[n+](CC(=O)c2cccs2)c1 [Compound 35, 1-(2-thien-2'-yl-2-oxoethyl)-3-(methanesulfonyl hydrazinocarbonyl)-5-bromo pyridinium bromide] | 29.4

Same assay, conditions: Concentration 10 mM; 10µg/ml 16 weeks AGE-BSA, 37°C, 24 hours

Row | Structure (SMILES) | % breakage of AGE-BSA crosslinks at 10000 µM [%]
5 | O=C(NNC(=O)c1cccnc1Cl)c1ccc[n+](CC(=O)c2cccs2)c1 [Compound 24, 1-(2-thien-2'yl-2-oxoethyl)-3-(2-(2-chloro-3-pyridoylhydrazinocarbonyl) -pyridinium chloride] | 12.5
6 | CS(=O)(=O)NNC(=O)c1ccc[n+](CC(=O)c2cccs2)c1 [Compound 27, 1-(2-thien-2'-yl-2-oxoethyl)-3-(methanesulfonyl hydrazinocarbonyl) pyridinium chloride] | 17.5
7 | CC(C)S(=O)(=O)NNC(=O)c1ccc[n+](CC(=O)c2cccs2)c1 [Compound 32, 1-(2-thien-2'-yl-2-oxoethyl)-3-(isopropylsulfonyl hydrazinocarbonyl) pyridinium bromide] | 31.4
8 | CCOC(=O)NNC(=O)c1ccc[n+](CC(=O)c2cccs2)c1 [Compound 36, 1-(2-thien-2'-yl-2-oxoethyl)-3-(ethoxycarbonyl hydrazinocarbonyl) pyridinium bromide] | 33.4

Other lines, results leading:

Row | % breakage of AGE-BSA crosslinks at 10000 µM [%] | Structure (SMILES)
9 | 13 | COCCOC(=O)c1ccc[n+](CC(=O)c2ccc(Cl)cc2Cl)c1 [Compound 4, 1-(2-(2',4'-dichlorophenyl)-2-oxoethyl)-3-(2(methoxy)ethyloxycarbonyl) pyridinium bromide]
10 | 37 | O=C(C[n+]1cccc(C(=O)NCCOC(=O)c2ccccc2)c1)Nc1ccccc1 [Compound 5, 1-(2-phenylamino-2-oxoethyl)-3-((benzoyloxy)ethylaminocarbonyl) pyridinium chloride]
11 | 14 | O=C(NNC(=O)c1ccc[n+](CC(=O)c2ccco2)c1)c1ccc[n+](CC(=O)c2ccco2)c1 [Compound 14, N, N' - bis [3-carbonyl-1-(2-furan-2'-yl-2-oxoethyl)pyridinium] hydrazine dibromide]
12 | 32.4 | COCCNC(=O)c1cc(Br)c[n+](CC(=O)c2cccs2)c1 [Compound 29, 1-(2-thien-2'-yl-2-oxoethyl)-3-((2-methoxyethyl)aminocarbonyl)-5-bromo pyridinium chloride]
13 | 82 | Cc1ccc(C(=O)C[n+]2cccc(C(=O)NNC(=O)c3ccc[n+](CC(=O)c4ccc(C)s4)c3)c2)s1 [Compound 40, N,N'-bis[3-carbonyl-1-(2-(5-methyl-thien-2-yl)-2-oxoethyl)pyridinium] hydrazine dichloride]
14 | 20.3 | CCOC(=O)C1CCCN1C(=O)C[n+]1cccc(C(=O)NNC(=O)c2ccc[n+](CC(=O)N3CCCC3C(=O)OCC)c2)c1 (stereo not drawn) [Compound 41, N,N'-bis[3-carbonyl-1-(2-(2-ethoxycarbonylpyrrolidin-1-yl)-2-oxoethyl)pyridinium] hydrazine dichloride]
15 | 78.4 | O=C(NNC(=O)c1ccc[n+](CC(=O)c2ccc(Cl)s2)c1)c1ccc[n+](CC(=O)c2ccc(Cl)s2)c1 [Compound 44, N,N'-bis[3-carbonyl-1-(2-(5-chloro-thien-2-yl)-2-oxoethyl)pyridinium] hydrazine dichloride]

Same assay, conditions: Concentration 25 mM; 10µg/ml 16 weeks AGE-BSA, 37°C, 24 hours; read-out: % Breakage

Row | Structure (SMILES) | inhibition at 25000 µM [%]
16 | COCCOC(=O)c1ccc[n+](CC(=O)c2ccc(Cl)cc2Cl)c1 [Compound 4, 1-(2-(2',4'-dichlorophenyl)-2-oxoethyl)-3-(2(methoxy)ethyloxycarbonyl) pyridinium bromide] | 41
17 | O=C(C[n+]1cccc(C(=O)NCCOC(=O)c2ccccc2)c1)Nc1ccccc1 [Compound 5, 1-(2-phenylamino-2-oxoethyl)-3-((benzoyloxy)ethylaminocarbonyl) pyridinium chloride] | 90

Same assay, conditions: read-out: % Breakage

Row | Structure (SMILES) | inhibition at 5000 µM [%] | inhibition at 10000 µM [%]
18 | COCCNC(=O)c1ccc[n+](CC(=O)c2ccc(Cl)cc2Cl)c1 [Compound 20, 1-(2',4'-dichloro-phenyl-2-oxoethyl)-3-(2-methoxyethylaminocarbonyl)-pyridinium bromide] | 17.7 | 
19 | COCCNC(=O)c1ccc[n+](CC(=O)NC2CC2)c1 [Compound 22, 1-(2-cyclopropylamino-2-oxoethyl)-3-(2-methoxyethylaminocarbonyl)-pyridinium chloride] |  | 12.4
20 | CC(C)NC(=O)C[n+]1cccc(C(=O)NNS(C)(=O)=O)c1 [Compound 25, 1-(2-isopropylamino-2-oxoethyl)-3-(2-methylsulfonylhydrazinocarbonyl) -pyridinium chloride] |  | 10.8
21 | CS(=O)(=O)NNC(=O)c1ccc[n+](CC(=O)N2CCC(Cc3ccccc3)CC2)c1 [Compound 33, 1-(2-(4-benzylpiperidin-1-yl)-2-oxoethyl)-3-(methanesulfonyl hydrazinocarbonyl) pyridinium chloride] |  | 20.9
22 | CCOC(=O)C1CCCN1C(=O)C[n+]1cccc(C(=O)NNS(C)(=O)=O)c1 (stereo not drawn) [Compound 34, 1-(2-(2-ethoxycarbonylpyrrolidin-1-yl)-2-oxoethyl)-3-(methanesulfonyl hydrazinocarbonyl) pyridinium chloride] |  | 25.3
23 | CS(=O)(=O)NNC(=O)c1ccc[n+](CC(=O)c2ccc(Cl)s2)c1 [Compound 37, 1-(2-(5-chloro-thien-2-yl)-2-oxoethyl)-3-(methanesulfonyl hydrazinocarbonyl) pyridinium bromide] |  | 40.9
24 | O=C(NNC(=O)c1ccc[n+](CC(=O)c2cc([N+](=O)[O-])cs2)c1)c1ccc[n+](CC(=O)c2cc([N+](=O)[O-])cs2)c1 [Compound 38, N,N'-bis[3-carbonyl-1-(2-(4-nitro-thien-2-yl)-2-oxoethyl)pyridinium] hydrazine dichloride] |  | 75.9
25 | CCOC(=O)C1CSCN1C(=O)C[n+]1cccc(C(=O)NNS(C)(=O)=O)c1 (stereo not drawn) [Compound 43, 1-(2-(4-carbethoxy-thiazolidin-3-yl)-2oxoethyl)-3-(methanesulfonyl hydrazinocarbonyl) pyridinium chloride] |  | 25.1
26 | Cc1ccc(C(=O)C[n+]2cccc(C(=O)NNS(C)(=O)=O)c2)s1 [Compound 45, 1-(2-(5-methyl-thien-2-yl)-2-oxoethyl)-3-(methanesulfonyl hydrazinocarbonyl) pyridinium chloride] |  | 25.2
27 | CS(=O)(=O)NNC(=O)c1ccc[n+](CC(=O)c2cc([N+](=O)[O-])cs2)c1 [Compound 46, 1-(2-(4-nitro-thien-2-yl)-2-oxoethyl)-3-(methanesulfonyl hydrazinocarbonyl) pyridinium bromide] |  | 60.9
